Results reported in patent publication US20100173853A1, “COMBINATION OF MONOSACCHARIDES WITH ASCORBIC ACID AND USE THEREOF” (L'OREAL, priority 2008, published 2010).
“Also recorded” adds a separate entry of the source.

Experiments:
Collagen VI Col6A1 = experiment: Expression of collagen VI alpha 1-chain by dermal fibroblasts (RNA); format: cell-based; conditions: human dermal fibroblasts; Rhamnose 1 mM, Vitamin C 50 μM, alone or associated; D3 or D5 not stated
Description: (§1) This example describes the synergic effect of the association of vitamin C with L-rhamnose on the expression of the alpha 1-chain of collagens VI and XII of the extracellular matrix.
(§2) Human dermal fibroblasts (used at the ninth passage) are obtained from mammary or abdominal surgeries. The culture medium implemented is DMEM, supplemented with: • fetal calf serum (FCS), 10% • L-Glutamine, 2 mM (Invitrogen 25030024), • Penicillin (50 UI/mL), streptomycin (50 μg/mL), (Invitrogen 15070063), • Sodium pyruvate (Invitrogen 11360039), and • Non essential amino acids (Invitrogen 11140035).
(§3) Fibroblasts are cultured (D0) in supplemented DMEM medium as described above, incubated at 37° C. znd 5% CO2 in an atmosphere saturated with water. After adhesion of the cells (D1), the culture medium is removed and replaced with medium containing vitamin C, L-rhamnose or their association. The different stimulation conditions (vitamin C 25 μM, 50 μM, Rhamnose 1 mM and the different associations) were performed in triplicate (12 well dish). Studies of the expression of the different collagenes were performed on D3 and D5.
(§4) For each condition and at each time (D3 and D5), the supernatants are removed and the cell lawns are lysed. […]
(§5) RNAs are then quantified in fluorescence according to the Ribogreen protocol (Quan-it, Ribogreen RNA assay kit, invitrogen R11490) and reading with Tecan Safire. […]

type I procollagen = experiment: Synthesis of procollagen 1 in reconstructed skin (indirect immunofluorescence); format: cell-based, human
Collagen XII Cola12A1 = experiment: Expression of collagen XII alpha 1-chain by dermal fibroblasts (RNA); format: cell-based; conditions: human dermal fibroblasts; Rhamnose 1 mM, Vitamin C 50 μM, alone or associated; D3 or D5 not stated
Description: as §1, §2, §3, §4, §5

[1] = tested on: keratinocytes (HaCat line); experiment: Proliferation of keratinocytes in medium deficient in growth factors (Cyquant, Nile red, XTT probes); format: cell-based; conditions: HaCat keratinocytes in medium depleted in growth factors
Description: The keratinocytes (HaCat line) are cultured under two conditions: whole defined culture medium (standard condition) and culture medium deficient in growth factors. This deficient medium gives rise to a controlled delay in cell proliferation. Under these conditions, it is then possible to measure the effects of compounds capable of compensating for the deficiency in growth factors of the culture medium and thus of relaunching the cell multiplication and/or of stimulating cell metabolism.
The keratinocyte proliferation is measured by means of three markers on the same cell population: the level of DNA, which is proportional to the number of cells (Cyquant probe), the level of constituent polar lipids of cell membranes (Nile red probe) and the mitochondrial respiration, which reflects the general cell metabolism (XTT probe).

| Structure (SMILES) | intensity of the biosynthesis of Collagen VI (Col6A1) compared to the control that is at 100 (Collagen VI Col6A1) | procollagen 1 synthesis (green fluorescence) vs control skin (type I procollagen; 1 mM, 120 hours) | procollagen 1 synthesis (type I procollagen; 5 mM) | intensity of the biosynthesis of Collagen XII (Cola12A1) compared to the control that is at 100 (Collagen XII Cola12A1) | keratinocyte proliferation (efficacy) ([1]; 500 μM) | level of DNA (Cyquant) ([1]; 1 mM, vs untreated control) | level of polar lipids (Nile red signal) ([1]; 1 mM, vs untreated control) | mitochondrial respiration (XTT signal) ([1]; 1 mM, vs untreated control) |
| --- | --- | --- | --- | --- | --- | --- | --- | --- |
| C[C@H](O)[C@H](O)[C@@H](O)[C@@H](O)C=O [Rhamnose, L-rhamnose] | 109 | stimulation; also recorded: marked increase | stimulation | 115 | already show efficacy | significantly increased | significantly increased | significantly increased |
| O=C1O[C@H]([C@@H](O)CO)C(O)=C1O [Vitamin C, ascorbic acid] | 154 |  |  | 124 |  |  |  |  |
